Results from PubChem BioAssay AID1963846 (Molecular Pharmacology Branch, DTP, NCI, 2024).

Tested on: 454973-116-R2-J3-PDC complex spheroid viability
Test: Anticancer human tumor 454973-116-R2-J3-PDC patient-derived pancreatic carcinoma cell line growth inhibition [POLQ]
Conditions: for IC50: curve of first compound; for viability, T/C: stronger effect = lower value
Procedure, shortened: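 Growth inhibition in 3D: complex spheroids (tumor PDC, HUVEC, MSC) treated with POLQ inhibitor combinations; where Cmax unknown, highest tested concentration 10 microM, except SN-38 at 1 microM.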

[1] = second compound 0.0316 µM, first compound 0.0316 µM
[2] = second compound 0.0316 µM, first compound 0.1 µM
[3] = second compound 0.0316 µM, first compound 0.316 µM
[4] = second compound 0.0316 µM, first compound 1 µM
[5] = second compound 0.0316 µM, first compound 3.16 µM
[6] = second compound 0.0316 µM, first compound 10 µM
[7] = second compound 0.1 µM, first compound 0.0316 µM
[8] = second compound 0.1 µM, first compound 0.1 µM
[9] = second compound 0.1 µM, first compound 0.316 µM
[10] = second compound 0.1 µM, first compound 1 µM
[11] = second compound 0.1 µM, first compound 3.16 µM
[12] = second compound 0.1 µM, first compound 10 µM
[13] = second compound 0.316 µM, first compound 0.0316 µM
[14] = second compound 0.316 µM, first compound 0.1 µM
[15] = second compound 0.316 µM, first compound 0.316 µM
[16] = second compound 0.316 µM, first compound 1 µM
[17] = second compound 0.316 µM, first compound 3.16 µM
[18] = second compound 0.316 µM, first compound 10 µM
[19] = second compound 1 µM, first compound 0.0316 µM
[20] = second compound 1 µM, first compound 0.1 µM
[21] = second compound 1 µM, first compound 0.316 µM
[22] = second compound 1 µM, first compound 1 µM
[23] = second compound 1 µM, first compound 3.16 µM
[24] = second compound 1 µM, first compound 10 µM
[25] = second compound 3.16 µM, first compound 0.0316 µM
[26] = second compound 3.16 µM, first compound 0.1 µM
[27] = second compound 3.16 µM, first compound 0.316 µM
[28] = second compound 3.16 µM, first compound 1 µM
[29] = second compound 3.16 µM, first compound 3.16 µM
[30] = second compound 3.16 µM, first compound 10 µM
[31] = second compound 10 µM, first compound 0.0316 µM
[32] = second compound 10 µM, first compound 0.1 µM
[33] = second compound 10 µM, first compound 0.316 µM
[34] = second compound 10 µM, first compound 1 µM
[35] = second compound 10 µM, first compound 3.16 µM
[36] = second compound 10 µM, first compound 10 µM
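Further: spheroids exposed to drugs for seven days before measurement.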
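Wherever viability, T/C is given: percent viability relative to DMSO vehicle control wells taken as 100%.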

With CCCS(=O)(=O)Nc1ccc(F)c(C(=O)c2c[nH]c3ncc(-c4ccc(Cl)cc4)cc23)c1F + Nc1ccc(C#CCN(C(=O)Cc2ncc(C(F)(F)F)cc2C(F)(F)F)c2ccc(F)cc2)nn1 the IC50 (second compound 0.0316 µM) was 8620 nM, the IC50 (second compound 0.1 µM) was 8220 nM and the IC50 (second compound 0.316 µM) was 8450 nM. It also gave an IC50 (second compound 1 µM) of 8620 nM, an IC50 (second compound 3.16 µM) of 8460 nM and an IC50 (second compound 10 µM) of 7560 nM. The viability, T/C [1] was 106%, the viability, T/C [2] was 109% and the viability, T/C [3] was 117%. The viability, T/C [4] was 114%, the viability, T/C [5] was 114% and the viability, T/C [6] was 40.7%. It also gave a viability, T/C [7] of 104%, a viability, T/C [8] of 109% and a viability, T/C [9] of 108%. The viability, T/C [10] was 115%, the viability, T/C [11] was 113% and the viability, T/C [12] was 37.6%. The viability, T/C [13] was 106%, the viability, T/C [14] was 109% and the viability, T/C [15] was 110%. The viability, T/C [16] was 114%, the viability, T/C [17] was 120% and the viability, T/C [18] was 39.5%. For the same compound, the viability, T/C [19] was 112%, the viability, T/C [20] was 116% and the viability, T/C [21] was 116%. For the same compound, the viability, T/C [22] was 117%, the viability, T/C [23] was 114% and the viability, T/C [24] was 40.4%. The viability, T/C [25] was 116%, the viability, T/C [26] was 118% and the viability, T/C [27] was 112%. The viability, T/C [28] was 115%, the viability, T/C [29] was 113% and the viability, T/C [30] was 39.3%. It also gave a viability, T/C [31] of 133%, a viability, T/C [32] of 116% and a viability, T/C [33] of 117%. For the same compound, the viability, T/C [34] was 116%, the viability, T/C [35] was 116% and the viability, T/C [36] was 28.9%.

COc1cccc(OCCCN)c1-c1cc(Nc2cnc(C#N)cn2)n[nH]1 + Cc1cccc(N(C)C(=O)C2C(O)CCN2c2nc(C)cc(C(F)(F)F)c2C#N)c1 gave an IC50 (second compound 0.0316 µM) of 17.8 nM, an IC50 (second compound 0.1 µM) of 16 nM and an IC50 (second compound 0.316 µM) of 16 nM. For the same compound, the IC50 (second compound 1 µM) was 13.4 nM, the IC50 (second compound 3.16 µM) was 13.2 nM and the IC50 (second compound 10 µM) was 13.6 nM. For the same compound, the viability, T/C (second compound 0.0316 µM, first compound 0.00316 µM) was 109%, the viability, T/C (second compound 0.0316 µM, first compound 0.01 µM) was 78.1% and the viability, T/C [1] was 21.9%. For the same compound, the viability, T/C [2] was 7.22%, the viability, T/C [3] was 5.75% and the viability, T/C [4] was 4.08%. The viability, T/C (second compound 0.1 µM, first compound 0.00316 µM) was 95%, the viability, T/C (second compound 0.1 µM, first compound 0.01 µM) was 75.2% and the viability, T/C [7] was 13.4%. The viability, T/C [8] was 7.01%, the viability, T/C [9] was 6.2% and the viability, T/C [10] was 4.45%. It also gave a viability, T/C (second compound 0.316 µM, first compound 0.00316 µM) of 102%, a viability, T/C (second compound 0.316 µM, first compound 0.01 µM) of 77.6% and a viability, T/C [13] of 10%. It also gave a viability, T/C [14] of 6.6%, a viability, T/C [15] of 5.64% and a viability, T/C [16] of 5.58%. For the same compound, the viability, T/C (second compound 1 µM, first compound 0.00316 µM) was 104%, the viability, T/C (second compound 1 µM, first compound 0.01 µM) was 64.2% and the viability, T/C [19] was 8.06%. It also gave a viability, T/C [20] of 5.29%, a viability, T/C [21] of 5.1% and a viability, T/C [22] of 4.45%. The viability, T/C (second compound 3.16 µM, first compound 0.00316 µM) was 112%, the viability, T/C (second compound 3.16 µM, first compound 0.01 µM) was 63% and the viability, T/C [25] was 9.04%. For the same compound, the viability, T/C [26] was 6.82%, the viability, T/C [27] was 5.92% and the viability, T/C [28] was 6.01%. The viability, T/C (second compound 10 µM, first compound 0.00316 µM) was 98.6%, the viability, T/C (second compound 10 µM, first compound 0.01 µM) was 64.2% and the viability, T/C [31] was 11.1%. It also gave a viability, T/C [32] of 5.73%, a viability, T/C [33] of 6.26% and a viability, T/C [34] of 5.41%.

In the case of O=c1[nH]cc(F)c(=O)[nH]1 + Nc1ccc(C#CCN(C(=O)Cc2ncc(C(F)(F)F)cc2C(F)(F)F)c2ccc(F)cc2)nn1, the IC50 (second compound 0.0316 µM) is reported as 1730 nM, the IC50 (second compound 0.1 µM) is reported as 1740 nM and the IC50 (second compound 0.316 µM) is reported as 1850 nM. It also gave an IC50 (second compound 1 µM) of 1310 nM, an IC50 (second compound 3.16 µM) of 1550 nM and an IC50 (second compound 10 µM) of 1550 nM. The viability, T/C [1] was 108%, the viability, T/C [2] was 116% and the viability, T/C [3] was 102%. For the same compound, the viability, T/C [4] was 67%, the viability, T/C [5] was 28.6% and the viability, T/C [6] was 33.2%. It also gave a viability, T/C [7] of 105%, a viability, T/C [8] of 103% and a viability, T/C [9] of 97.4%. The viability, T/C [10] was 69.2%, the viability, T/C [11] was 27.2% and the viability, T/C [12] was 30.2%. It also gave a viability, T/C [13] of 107%, a viability, T/C [14] of 106% and a viability, T/C [15] of 103%. The viability, T/C [16] was 71%, the viability, T/C [17] was 29.2% and the viability, T/C [18] was 33.9%. The viability, T/C [19] was 108%, the viability, T/C [20] was 102% and the viability, T/C [21] was 109%. The viability, T/C [22] was 56.1%, the viability, T/C [23] was 28.1% and the viability, T/C [24] was 32.1%. For the same compound, the viability, T/C [25] was 120%, the viability, T/C [26] was 117% and the viability, T/C [27] was 106%. For the same compound, the viability, T/C [28] was 63.5%, the viability, T/C [29] was 25.4% and the viability, T/C [30] was 32.5%. It also gave a viability, T/C [31] of 119%, a viability, T/C [32] of 118% and a viability, T/C [33] of 115%. The viability, T/C [34] was 63.7%, the viability, T/C [35] was 24.3% and the viability, T/C [36] was 31.1%.

CCc1cc2c(N3CCc4c(cc(Cn5ccnc5)cc4-c4cn(C)nc4C(F)(F)F)C3=O)ccnc2c(OC)n1 + COC1C(OC(N)=O)C(O)C(Oc2ccc3c(O)c(NC(=O)c4ccc(O)c(CC=C(C)C)c4)c(=O)oc3c2C)OC1(C)C was tested, and the IC50 (second compound 0.0316 µM) was greater than 10000 nM, the IC50 (second compound 0.1 µM) was greater than 10000 nM and the IC50 (second compound 0.316 µM) was greater than 10000 nM. The IC50 (second compound 1 µM) was greater than 10000 nM, the IC50 (second compound 3.16 µM) was greater than 10000 nM and the IC50 (second compound 10 µM) was greater than 10000 nM. It also gave a viability, T/C [1] of 109%, a viability, T/C [2] of 107% and a viability, T/C [3] of 96.7%. The viability, T/C [4] was 86.4%, the viability, T/C [5] was 90.8% and the viability, T/C [6] was 72.8%. It also gave a viability, T/C [7] of 101%, a viability, T/C [8] of 96% and a viability, T/C [9] of 96.8%. The viability, T/C [10] was 96.8%, the viability, T/C [11] was 91.5% and the viability, T/C [12] was 81.5%. For the same compound, the viability, T/C [13] was 99.8%, the viability, T/C [14] was 104% and the viability, T/C [15] was 96.5%. For the same compound, the viability, T/C [16] was 96.4%, the viability, T/C [17] was 88.8% and the viability, T/C [18] was 82.1%. The viability, T/C [19] was 112%, the viability, T/C [20] was 104% and the viability, T/C [21] was 99%. The viability, T/C [22] was 93.7%, the viability, T/C [23] was 85.8% and the viability, T/C [24] was 76.6%. For the same compound, the viability, T/C [25] was 107%, the viability, T/C [26] was 102% and the viability, T/C [27] was 97.8%. The viability, T/C [28] was 86.8%, the viability, T/C [29] was 82.4% and the viability, T/C [30] was 72.2%. It also gave a viability, T/C [31] of 113%, a viability, T/C [32] of 99% and a viability, T/C [33] of 96%. It also gave a viability, T/C [34] of 86.5%, a viability, T/C [35] of 84% and a viability, T/C [36] of 72.9%.
